Where “and” joins values, the source holds several entries; their conditions need not be identical. Equal values may be shown once.
Tests used:
[1] = Human recombinant insulin oral/intracolonic delivery in rats, serum insulin Cmax; format: in vivo, Sprague-Dawley rats
Protocol: (§1) Insulin (human recombinant) was obtained from ICN Biomedicals (Aurora, Ohio) as a bulk powder. To prepare stock solutions, insulin was dissolved in deionized water (pH˜6.5) to obtain a concentration of 15 mg/ml. Stock solutions were kept frozen at −20° C. in 1.0-ml aliquots until used. For dosing solutions, the delivery agent compound was dissolved in deionized water to obtain a final concentration of 200 mg/ml. The free acid form of delivery agent was converted to the sodium salt by adding one equivalent of sodium hydroxide. Solutions were vortexed, sonicated, and heated, and if necessary, additional sodium hydroxide was added in μl quantities to achieve uniform solubility. Solutions were adjusted to a pH of 3.5-8.5 by the addition of either hydrochloric acid or sodium hydroxide. Insulin stock (typically 66.7 μl) was then added to the delivery agent solution to obtain a final concentration of 0.5 mg/ml. After solubilization and drug addition, solutions were brought to final volume by the addition of deionized water.
(§2) Insulin was administered to male, Sprague-Dawley rats either alone or in combination with an Emisphere delivery agent by oral gavage (PO). Typically, rats were fasted for 18-24 hours prior to dosing. For dosing, a Rusch 8 French catheter was cut to 11 cm in length and adapted to fit a 1-ml syringe. The syringe was filled with dosing solution and the catheter was wiped dry of excess solution. The catheter was inserted into the rat mouth and fed down the esophagus (10.0 cm). The dosing solution was delivered by pressing the syringe plunger while holding the rat in an upright position.
During blood sampling, rats were exposed briefly (˜10 sec) to carbon dioxide until prostrate, immediately prior to each sampling time point. For blood sampling, a 77-mm capillary tube was inserted into the retroorbital sinus. Typically, blood samples were collected prior to dosing (time 0) and at 15, 30, 45, and 60 minutes after dosing. Samples were collected into CAPIJECT® tubes (Terumo Corporation, Tokyo, Japan) containing a clot activator (red top, serum separator tubes). Samples were allowed to clot for ˜20 min at 4° C. After clotting, samples were centrifuged at 10,000 rpm for 4 minutes at 6° C. in order to separate the serum. Serum was collected into eppendorf tubes and frozen at −20° C. until assayed.

[2] = Oral and intracolonic heparin delivery in rats, APTT; format: in vivo, Sprague-Dawley rats
Protocol: (§3) Oral gavage (PO) and/or intracolonic (IC) dosing solutions containing a delivery agent compound and heparin sodium USP in 25% aqueous propylene glycol were prepared. The sodium salt of the compound was used. Typically, delivery agent compound and heparin (about 166-182 IU/mg) were mixed by vortex as dry powders. This dry mixture was dissolved in 25% v/v aqueous propylene glycol, vortexed and placed in a sonicator (about 37° C.). The pH was adjusted to about 7 (6.5 to 8.5) with aqueous NaOH (2N). The dosing solution was sonicated to produce a clear solution. The final volume was adjusted to 3.0 mL. The final delivery agent compound dose, heparin dose and volume dose amounts are listed below in Table 6.
(§4) The typical dosing and sampling protocols were as follows. Male Sprague-Dawley rats weighing between 275-350 g were fasted for 24 hours and were anesthetized with ketamine hydrochloride (88 mg/kg) intramuscularly immediately prior to dosing. A dosing group of five rats was administered one of the dosing solutions. […] Solution was administered by pressing the syringe plunger. […] The dosing catheter was inserted into the colon through the anus until the tube was no longer visible. The dosing solution was injected slowly into the colon.
Citrated blood samples were collected by cardiac puncture following the administration of ketamine (88 mg/kg), typically at time—0.25, 0.5, 1.0 and 1.5 hours. Heparin activity was determined by utilizing the activated partial thromboplastin time (APTT) according to the method of Henry, J. B., Clinical Diagnosis and Management by Laboratory Methods, Philadelphia, Pa., W.B. Saunders (1979). Previous studied indicated baseline values of about 20 sec. Results from the five rats in each group were averaged for each time point. The maximum is reported below in Table 6.

[3] = Human zinc insulin oral delivery in rats, blood glucose % change; format: in vivo, Sprague-Dawley rats; conditions: delivery agent compound dose 200 mg/kg, human zinc insulin dose 0.5 mg/kg
[4] = Human recombinant insulin oral delivery in rats, whole blood glucose; format: in vivo, Sprague-Dawley rats; conditions: oral (liquid dose), delivery agent compound dose 200 mg/kg, insulin dose 0.5 mg/kg
Protocol: as §1, §2
In order to determine the pharmacodynamic response, a hand-held glucometer (OneTouch Ultra, LifeScan® (Johnson & Johnson, New Brunswick, N.J.)) was used to measure whole blood glucose after administration of insulin or insulin and delivery agent. Samples were collected either from the retroorbital sinus (see Sample collection and handling: Insulin) or from the tail artery (i.e. tail clip). For tail clipping, the tip of the tail was severed approximately 5 mm from the tip using a scalpel blade. After discarding the first drop of blood, a small sample (˜5-10 μl) was touched to the glucometer test strip (OneTouch Ultra, LifeScan) and a blood glucose reading was generated by the meter. For each subsequent sampling time point, the clot formed at the tip of the tail was broken up and a fresh sample was collected. Typically, samples were collected prior to dosing (time 0) and at 15, 30, 45, and 60 minutes after dosing.

[5] = PYY[3-36] liquid oral delivery in rats, serum PYY by radioimmunoassay; parameters: species or system Sprague-Dawley rats; conditions: rat, in vivo
Protocol: Oral gavage (PO) dosing solutions of delivery agent compound and Peptide YY residues 3-36 (PYY[3-36]) (available from Bachem California Inc. of Torrance, Calif.) in deionized water were prepared as follows.
PYY [3-36] stock solution (80 mg/ml) was prepared with deionized water. Oral dosing compositions containing 200 mg/kg of delivery agent compound and 0.3 mg/kg of PYY in aqueous solution were prepared. A solution of the compound 23 is made with one equivalent to sodium hydroxide to convert the free acid delivery agent to its sodium salt.
Male Sprague-Dawley rats weighing between 240-320 g were fasted up to a maximum 24 hours before the experiments and administered ketamine (44 mg/kg) and thorazine (1.5 mg/kg) by intramuscular injection before the test article administration. Afterwards, the anesthetized animals were administered the test article by oral gavage.
Blood samples were collected serially from the tail artery, or by cardiac puncture, typically at time=0, 15, 30, 45, 60 and 90 minutes. Serum PYY concentrations were quantified using a PYY[3-36] radioimmunoassay (Catalog #RK-059-02 from Phoenix Pharmaceuticals, Inc., Belmont, Calif.). Results from the animals in each group were averaged for each time point. The maximum of these averages (i.e., the mean peak serum PYY[3-36] concentration ±standard deviation (SD)) is reported below in Table 2.

[6] = Intracolonic heparin delivery in rats, antifactor Xa; format: in vivo, Sprague-Dawley rats; conditions: IC, volume 1 ml/kg, heparin dose 25 mg/kg
Protocol: as §3, §4

[7] = oral (liquid dose), delivery agent compound dose 100 mg/kg, insulin dose 1 mg/kg
[8] = IC, volume 1 ml/kg, compound dose 50 mg/kg, heparin dose 25 mg/kg

CC(CC(=O)O)NC(=O)c1cc(Br)cc(Br)c1O (centres unmarked) [Compound 141, 3-(3,5-Dibromo-2-hydroxy-benzoylamino)-butyric acid]
Cmax [1, 7]: Cmax = 204.05 ± 60.88 μIU/mL | Mean Peak APTT (sec) ± SD [2, 8]: 52.40 ± 21.54 s

COc1ccc(C(=O)O)cc1OCc1ccccc1 [Compound 153]
Glucose (% control) [3]: −7.1%

COc1ccc(C(=O)CCCC(=O)O)cc1 [Compound 116, 5-(4-Methoxy-phenyl)-5-oxo-pentanoic acid]
melting point: 141 to 142 °C

CN(C(=O)CCC(=O)O)c1ccc(Cl)cc1 [Compound 29]
Maximum % drop in glucose from control ± SD [4]: −29.25 ± 6.97%

Cc1cc(C(=O)O)cc(C)c1OCc1ccccc1 [Compound 154]
Glucose (% control) [3]: −7.9%

Cc1ccc(OCCCC(=O)O)c(C(=O)c2ccccc2Cl)c1 [Compound 167, 4-(2-Chlorobenzoyl-4-methylphenoxy)butyric acid]
Maximum % drop in glucose from control ± SD [4]: −21.2% and −17.7% and −26.2% and −17.8% and −22.7%

O=C(O)Cc1ccccc1OCc1ccccc1 [Compound 152]
Glucose (% control) [3]: −29.3%

CC(C)N(C(=O)CCCCC(=O)O)c1ccccc1 [Compound 24]
Maximum % drop in glucose from control ± SD [4]: −14.73 ± 17.64%

CC(CC(=O)O)CC(=O)N(C)c1ccccc1 (centres unmarked) [Compound 28]
Maximum % drop in glucose from control ± SD [4]: −11.41 ± 18.92%

CC(CC(=O)O)CC(=O)N(c1ccccc1)C(C)C (centres unmarked) [Compound 25]
Maximum % drop in glucose from control ± SD [4]: −14.81 ± 12.99%

O=C(O)CCCCCCCCC(=O)c1ccccc1O [Compound 114, 10-(2-Hydroxy-phenyl)-10-oxo-decanoic acid]
Mean Peak APTT (sec) ± SD [2, 8]: 42.90 ± 8.70 s | melting point: 85 to 87 °C

CC(CC(=O)O)NC(=O)c1ccccc1O (centres unmarked) [Compound 140, 3-(2-Hydroxy-benzoylamino)-butyric acid]
Cmax [1, 7]: Cmax = 81.16 ± 114.98 μIU/mL | Mean Peak APTT (sec) ± SD [2, 8]: 23.49 ± 6.12 s

CCN(C(=O)CC(C)CC(=O)O)c1ccccc1 (centres unmarked) [Compound 26]
Maximum % drop in glucose from control ± SD [4]: −25.93 ± 14.86%

O=C(O)CCCCOc1ccc(OCc2ccccc2)cc1 [Compound 178, 5-(4-Benzyloxy-phenoxy)-pentanoic acid]
melting point: 127 to 128 °C

CC(CC(=O)O)NC(=O)c1cc(Cl)cc(Cl)c1O (centres unmarked) [Compound 142, 3-(3,5-Dichloro-2-hydroxy-benzoylamino)-butyric acid]
Cmax [1, 7]: Cmax = 118.16 ± 72.75 μIU/mL

O=C(O)Cc1ccc(OCc2ccccc2)cc1 [Compound 158]
melting point: 110 to 112 °C

CC(CC(=O)O)NC(=O)c1ccc(Cl)cc1O (centres unmarked) [Compound 145, 3-(4-Chloro-2-hydroxy-benzoylamino)-butyric acid]
Cmax ([1]; intracolonic, delivery agent compound dose 50 mg/kg, insulin dose 0.1 mg/kg): Cmax = 15.03 ± 7.80 μIU/mL | Cmax [1, 7]: Cmax = 3.92 ± 5.62 μIU/mL | Mean Peak APTT (sec) ± SD [2, 8]: 134.42 ± 99.03 s

O=C(O)CCCCCCCCCCOc1ccccc1OCc1ccccc1 [Compound 177, 11-(2-Benzyloxyphenoxy)undecanoic acid]
melting point: 62 to 63 °C

COc1ccc(OCCCC(=O)O)c(C(=O)c2ccccc2O)c1 [Compound 165]
Maximum % drop in glucose from control ± SD [4]: −33.0%

O=C(O)CCCCCOc1ccccc1C(=O)c1ccccc1O [Compound 160, 6-(2-(2-Hydroxybenzoyl)phenoxy)hexanoic acid]
Cmax ([1]; oral (liquid dose), delivery agent compound dose 200 mg/kg, insulin dose 0.5 mg/kg): Cmax = 74 ± 7.5 μIU/mL | Mean Peak APTT (sec) ± SD [2, 8]: 131 ± 154 s | melting point: 67 to 70 °C

PYY[3-36]: Peptide YY residues 3-36, available from Bachem California Inc.; the active agent, dosed alone
PYY[3-36] detected in blood [5]: No significant PYY[3-36] was detected

O=C(O)CCCOc1ccccc1C(=O)c1ccccc1O [Compound 166, 4-(2-(2-Hydroxybenzoyl)phenoxy)butyric acid]
Maximum % drop in glucose from control ± SD [4]: −5.7%

CC(CC(=O)O)NC(=O)c1cc(C(C)C)cc(C(C)C)c1O (centres unmarked) [Compound 151, 3-(2-hydroxy-3,5-diisopropyl-benzoylamino)-butyric acid]
Mean Peak APTT (sec) ± SD ([2]; PO, volume 3 ml/kg, compound dose 300 mg/kg, heparin dose 100 mg/kg): 252.09 ± 107.13 s | antifactor Xa (mean peak ± SD) ([6]; compound dose 25 mg/kg): 3.39 ± 3.07 | antifactor Xa (mean peak ± SD) ([6]; compound dose 50 mg/kg): 2.36 ± 1.27

CC(C)N(C(=O)CCCCCC(=O)O)c1ccccc1 [Compound 23, 7-[isopropyl(phenyl)amino]-7-oxoheptanoic acid]
melting point: 62 to 63 °C

CC(CC(=O)O)NC(=O)c1cc(I)cc(I)c1O (centres unmarked) [Compound 143, 3-(2-Hydroxy-3,5-diiodo-benzoylamino)-butyric acid]
Mean Peak APTT (sec) ± SD [2, 8]: 114.69 ± 121.62 s

CN(C(=O)CCCCCC(=O)O)c1ccccc1 [Compound 27]
Maximum % drop in glucose from control ± SD [4]: −25.40 ± 30.61%

From patent US8273794B2, “Compounds and compositions for delivering active agents” (Emisphere Technologies, Inc., priority 2004, dated 2012)
